This note sets out measurements from patent publication US20090018150A1, “5-Ht2b Receptor Antagonists” (ASTERAND UK LIMITED, priority 2003, published 2009).

Test [1] concerns the target T1, cloned human 5-HT2C receptor (Homo sapiens, UniProt P28335).
T1 construct: purchased Euroscreen; host or cells: CHO-K1
T1 sequence (P28335 33-458): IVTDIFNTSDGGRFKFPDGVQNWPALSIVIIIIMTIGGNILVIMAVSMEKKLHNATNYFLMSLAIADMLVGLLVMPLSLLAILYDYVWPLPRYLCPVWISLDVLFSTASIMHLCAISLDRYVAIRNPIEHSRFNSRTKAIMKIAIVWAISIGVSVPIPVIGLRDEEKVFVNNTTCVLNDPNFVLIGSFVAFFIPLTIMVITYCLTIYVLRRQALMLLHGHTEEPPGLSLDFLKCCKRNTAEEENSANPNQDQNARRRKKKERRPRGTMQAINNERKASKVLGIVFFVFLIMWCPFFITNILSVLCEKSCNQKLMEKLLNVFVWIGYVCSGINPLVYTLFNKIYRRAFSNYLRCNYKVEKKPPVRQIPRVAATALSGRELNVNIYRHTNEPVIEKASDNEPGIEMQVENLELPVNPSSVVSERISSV
Kind of test: Human 5-HT2C receptor binding assay. Conditions: [3H]mesulergine (1 nM) displacement, CHO-K1 cell membranes; read-out: 5-HT2C pKi (converted). An outline of the steps:
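CHO-K1 cell membranes expressing the receptor (6 μg) competed against [^3H]mesulergine (1 nM) in 50 mM Tris-HCl pH 7.7, 0.1% ascorbic acid, 10 μM pargyline for 30 min at 37° C; compounds 1×10^−10 to 1×10^−4M. Nonspecific binding with 100 μM mianserin; filtration and scintillation counting. IC50 converted to Ki using saturation-derived Kd.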

Test [2] has as its target T2, human cloned 5-HT2B receptors (Homo sapiens, UniProt P41595).
T2 construct: expressed in transfected cells; host or cells: CHO-K1
The test can be described thus: Human cloned 5-HT2B receptor binding assay. As to conditions: [3H]LSD (1 nM) displacement, membranes of CHO-K1 cells expressing cloned 5-HT2B receptor; read-out: 5-HT2B pKi (converted). An outline of the steps: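 Membranes from CHO-K1 cells expressing cloned receptor incubated 30 min at 37 °C with 1 nM [3H]LSD, 10 μM pargyline and compound (1×10^−10 to 1×10^−4 M) in 50 mM Tris-HCl pH 7.4, 4 mM CaCl2. Nonspecific binding with 100 μM 5-HT; filtration and scintillation counting, IC50 converted to Ki using Kd from saturation binding.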

Test [3] addresses T2, human cloned 5-HT2B receptors. Kind of test: Human cloned 5-HT2B cell-based functional assay. As to conditions: inhibition of 5-HT response, Fluo-4 AM, CHO.K1 cells expressing cloned 5-HT2B receptor. On the procedure: The following describes an in vitro functional assay using human cloned 5-HT2B receptors to determine the ability of compounds to block the receptor. CHO.K1 cells expressing cloned 5-HT2B receptor were maintained In Ultra-CHO medium containing 400 μg/ml of G418, 1000 U/ml penicillin, 100 μg/ml streptomycin, 2.5 μg/ml fungizone, in 95/5% O2/CO2 at 37° C. Ultra-CHO medium additionally supplemented with 1% foetal bovine serum was used when seeding the cells and removed after 5 hours. Cells were plated in Costar 96 well white, clear-bottomed plate at a density of 50,000 cells per well and incubated for at least 24 hours in 95/5% O2/CO2 at 37° C. before running the assay. Media was removed from the wells and 200 μl of 4 μM Fluo-4 AM added, this was incubated in a Wallace Victor 2V workstation at 37° C. for 30 minutes. The Fluo-4 AM was then removed from the wells, which were then washed twice with 200 μl of buffer (HBSS without calcium/magnesium/phenol red, 20 mM HEPES, 1 mM Ca^2+, 1 mM Mg^2+, 2.5 mM probenecid, pH to 7.4), 180 μl of buffer or test compound was added to the well and incubated for 30 minutes. The Victor 2V injectors were used to inject 20 μl of 5-HT after obtaining 10 0.1-second baseline readings at 535 nm, followed by 150 readings. All test compounds were aliquoted in 100% DMSO at 10 mM and diluted to 1 mM in 50% DMSO, subsequent dilutions were made using buffer. Buffer was also used to dilute the 5-HT. Data were analysed using Microsoft Excel and GraphPad Prism, with the latter used to produce sigmoidal dose-response curves for each compound. The compound concentration that inhibited the 5-HT response by 50% was taken (IC50-M), and the results are shown in Table 2, as pIC50, being the negative log (to the base 10) of the measured IC50 values.

Test [4] addresses T3, cloned human 5-HT2A receptor (Homo sapiens, UniProt P28223).
T3 construct: purchased Euroscreen; host or cells: CHO-K1
The test can be described thus: Human 5-HT2A receptor binding assay. As to conditions: [3H]ketanserin (1 nM) displacement, CHO-K1 cell membranes; read-out: 5-HT2A pKi (converted). A digest of the protocol:
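Competition binding with 15 μg membranes from CHO-K1 cells expressing cloned human receptor, 1 nM [3H]ketanserin, 10 μM pargyline, 50 mM Tris pH 7.4, compounds 1×10^−10 to 1×10^−4 M; 100 μM mianserin defined nonspecific binding. Incubated 15 min at 37 °C, filtered, counted; IC50 converted to Ki using saturation-derived Kd.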

T3 sequence (P28223 whole entry): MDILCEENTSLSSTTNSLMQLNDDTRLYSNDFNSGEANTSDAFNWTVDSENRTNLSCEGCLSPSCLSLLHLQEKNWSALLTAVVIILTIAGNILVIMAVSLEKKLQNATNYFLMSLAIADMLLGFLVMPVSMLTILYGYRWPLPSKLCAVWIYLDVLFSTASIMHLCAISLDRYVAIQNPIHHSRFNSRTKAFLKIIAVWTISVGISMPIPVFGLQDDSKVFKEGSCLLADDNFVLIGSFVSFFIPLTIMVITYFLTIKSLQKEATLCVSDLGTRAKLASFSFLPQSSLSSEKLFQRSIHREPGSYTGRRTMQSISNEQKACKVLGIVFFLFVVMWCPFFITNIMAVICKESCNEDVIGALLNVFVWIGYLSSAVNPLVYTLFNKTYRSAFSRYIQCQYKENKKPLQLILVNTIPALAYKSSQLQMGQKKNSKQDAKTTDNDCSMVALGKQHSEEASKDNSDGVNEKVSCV
T2 sequence (P41595 whole entry): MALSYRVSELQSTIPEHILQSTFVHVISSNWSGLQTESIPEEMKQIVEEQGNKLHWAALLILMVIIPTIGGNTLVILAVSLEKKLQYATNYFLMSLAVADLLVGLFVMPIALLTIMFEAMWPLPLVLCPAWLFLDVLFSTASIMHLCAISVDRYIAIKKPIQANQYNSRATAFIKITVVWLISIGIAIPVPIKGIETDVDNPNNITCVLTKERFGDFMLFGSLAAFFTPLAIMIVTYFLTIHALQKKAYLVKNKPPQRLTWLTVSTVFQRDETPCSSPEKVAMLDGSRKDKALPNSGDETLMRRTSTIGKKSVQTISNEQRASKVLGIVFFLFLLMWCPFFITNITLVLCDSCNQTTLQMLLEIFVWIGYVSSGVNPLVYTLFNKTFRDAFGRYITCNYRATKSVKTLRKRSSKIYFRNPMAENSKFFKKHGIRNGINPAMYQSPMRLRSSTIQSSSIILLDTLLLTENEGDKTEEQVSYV

For orientation: IC50 means the point on the concentration scale where inhibition reaches its midpoint. The low end stands for inhibition by little substance, the high end for a need for much substance. As for `CC(=O)Nc1nc(-c2ccc(F)c3ccccc23)c[nH]1` [Compound 103F, N-[4-(4-Fluoro-naphthalen-1-yl)-1H-imidazol-2-yl]-acetamide], the Ki is > 3160 nM in test [1], < 100 nM in test [2] and > 3160 nM in test [4]. Besides, in test [3], the IC50 is < 100 nM.
`COc1ccc2ccccc2c1-c1c[nH]c(N)n1` [Compound 104C, 4-(2-Methoxy-naphthalen-1-yl)-1H-imidazol-2-ylamine]: the Ki in test [1] is > 316 nM; in test [2], < 100 nM; in test [4], > 1000 nM. For the same molecule, the IC50 in test [3] was < 1000 nM.
Take `COc1ccc2ccccc2c1-c1nc(N)[nH]c1C` [Compound 104J, 4-(2-Methoxy-naphthalen-1-yl)-5-methyl-1H-imidazol-2-ylamine]: the Ki in test [1] is > 100 nM; in test [2], < 100 nM; in test [4], > 316 nM. Moreover, the half-maximal inhibitory concentration (IC50) in test [3] was < 100 nM.
Regarding `COc1ccc2ccccc2c1-c1c[nH]c(NC(C)=O)n1` [Compound 103C, N-[4-(2-Methoxy-naphthalen-1-yl)-1H-imidazol-2-yl]-acetamide], the Ki is > 316 nM in test [1], < 100 nM in test [2] and > 316 nM in test [4]. The half-maximal inhibitory concentration (IC50) in test [3] was < 100 nM.
With `Cc1cccc(-c2cccc(Nc3nc(N)nn3C)c2)c1` [Compound 406C, 1-methyl-1-(3′-methyl-biphenyl-3-yl)-1H-[1,2,4]triazole-3,5-diamine], the Ki in test [1] was > 1000 nM; in test [2], < 100 nM; in test [4], > 1000 nM. For the same molecule, the IC50 in test [3] is < 100 nM.
With `COc1ccccc1-c1cccc(-c2oc(N)nc2C)c1` [Compound 219B, 5-(2′-Methoxy-biphenyl-3-yl)-4-methyl-oxazol-2-ylamine, trifluoroacetic acid], the Ki in test [1] is > 1000 nM; in test [2], < 100 nM; in test [4], > 1000 nM. Besides, the IC50 in test [3] was < 1000 nM.
